In patent US11136313B2, “Compounds, compositions, and methods for modulating CFTR” (Proteostasis Therapeutics, Inc., priority 2015, dated 2021):

Molecular target: T1, ΔF508-CFTR (Homo sapiens, UniProt P13569, DEL508-508)
T1 construct: Primary lung epithelial cells homozygous for the Cystic Fibrosis-causing ΔF508 mutation were differentiated for a minimum of 4 weeks; endogenous in cells; host or cells: primary lung epithelial cells (hBE) homozygous for ΔF508, differentiated at an air-liquid interface
T1 sequence (P13569 with tags, fused parts or gaps DEL508-508): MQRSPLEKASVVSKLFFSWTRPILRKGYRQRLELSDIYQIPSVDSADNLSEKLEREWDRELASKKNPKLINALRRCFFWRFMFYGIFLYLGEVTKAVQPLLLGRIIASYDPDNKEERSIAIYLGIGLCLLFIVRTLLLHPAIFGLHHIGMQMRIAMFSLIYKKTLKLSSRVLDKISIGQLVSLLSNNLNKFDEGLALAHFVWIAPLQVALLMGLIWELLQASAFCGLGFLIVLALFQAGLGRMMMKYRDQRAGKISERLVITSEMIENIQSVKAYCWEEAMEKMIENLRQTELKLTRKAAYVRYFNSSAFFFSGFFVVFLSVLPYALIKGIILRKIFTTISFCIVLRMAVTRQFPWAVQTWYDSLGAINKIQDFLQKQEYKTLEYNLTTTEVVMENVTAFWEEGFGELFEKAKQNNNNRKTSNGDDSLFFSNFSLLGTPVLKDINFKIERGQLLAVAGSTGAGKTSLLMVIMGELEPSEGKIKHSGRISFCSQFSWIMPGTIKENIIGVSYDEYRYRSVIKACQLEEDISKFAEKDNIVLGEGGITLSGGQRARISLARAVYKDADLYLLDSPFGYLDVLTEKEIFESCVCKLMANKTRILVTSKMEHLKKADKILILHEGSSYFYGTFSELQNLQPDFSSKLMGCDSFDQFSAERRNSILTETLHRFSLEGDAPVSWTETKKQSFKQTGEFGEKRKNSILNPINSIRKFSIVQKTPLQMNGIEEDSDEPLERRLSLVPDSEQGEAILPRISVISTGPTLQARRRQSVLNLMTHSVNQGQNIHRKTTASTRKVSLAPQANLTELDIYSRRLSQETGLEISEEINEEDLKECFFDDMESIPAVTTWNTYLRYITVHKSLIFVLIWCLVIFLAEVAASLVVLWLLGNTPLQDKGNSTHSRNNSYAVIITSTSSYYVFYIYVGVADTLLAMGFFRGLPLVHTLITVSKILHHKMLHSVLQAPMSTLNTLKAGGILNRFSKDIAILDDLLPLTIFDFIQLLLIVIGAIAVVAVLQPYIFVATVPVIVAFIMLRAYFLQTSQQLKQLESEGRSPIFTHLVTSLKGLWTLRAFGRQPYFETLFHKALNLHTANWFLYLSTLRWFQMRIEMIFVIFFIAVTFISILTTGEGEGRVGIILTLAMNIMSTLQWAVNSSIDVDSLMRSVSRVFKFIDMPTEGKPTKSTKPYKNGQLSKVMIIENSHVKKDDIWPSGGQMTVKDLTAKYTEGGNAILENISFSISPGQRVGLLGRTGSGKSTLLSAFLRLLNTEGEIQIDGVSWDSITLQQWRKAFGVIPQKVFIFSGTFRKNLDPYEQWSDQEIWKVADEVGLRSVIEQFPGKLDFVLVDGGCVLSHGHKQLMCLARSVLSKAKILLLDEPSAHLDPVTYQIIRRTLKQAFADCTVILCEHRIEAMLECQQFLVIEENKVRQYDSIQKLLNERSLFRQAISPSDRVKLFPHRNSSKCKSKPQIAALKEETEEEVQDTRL
Assay: hBE equivalent current (Ieq) assay: AUC of equivalent chloride current after forskolin/VX-770 in primary lung epithelial cells homozygous for ΔF508
Format: cell-based
Settings: relative to CFTR amplifier (Compound A)+VX-809 (3 uM), compound at 10 uM and Compound A at 3 uM, 24 h treatment
Method: ii. hBE Equivalent Current (Ieq) Assay
Primary lung epithelial cells homozygous for the Cystic Fibrosis-causing ΔF508 mutation were differentiated for a minimum of 4 weeks in an air-liquid interface on Costar 24 well HTS filter plates prior to the equivalent current (Ieq) measurements. Cells were apically mucus-washed for 30 minutes 24 h prior to treatment with compounds. The basolateral media was removed and replaced with media containing the compound of interest diluted to its final concentration from DMSO stocks. Treated cells were incubated at 37° C. and 5% CO2 for 24 hours. At the end of the treatment period, the media was changed to the Ieq experimental solution for 2 hours before the experiment and plates are maintained in a CO2-free incubator during this period. The plates containing the cells were then placed in pre-warmed heating blocks at 36° C.±0.5 for 15 minutes before measurements are taken. The transepithelial voltage (VT) and conductance (GT) were measured using a custom 24 channel current clamp (TECC-24) with 24 well electrode manifold. The Ieq assay measurements were made following additions with standardized time periods: • 1. The baseline VT and GT values were measured for approximately 20 minutes. • 2. Benzamil was added to block ENaC for 15 minutes. • 3. Forskolin plus VX-770 were added to maximally activate ΔF508-CFTR for 27 minutes. • 4. Bumetanide was added to inhibit the NaK2Cl cotransporter and shut-off secretion of chloride.
The activity data captured was the area under the curve (AUC) for the traces of the equivalent chloride current. The AUC was collected from the time of the forskolin/VX-770 addition until the inhibition by bumetanide addition. Correction in response to compound treatment was scored as the increase in the AUC for compound-treated samples over that of vehicle-treated samples.
(+ indicates activity<50% of an CFTR amplifier (Compound A)+VX-809 (3 uM) with compound at 10 uM and Compound A at 3 uM; ++ indicates activity>50% of CFTR amplifier+VX-809 (3 uM) with compound at 10 uM and Compound A at 3 uM.

Compound	Activity
Cc1c(-c2cc(C(=O)O)c3cc(OCc4ccccc4)cc(C)c3n2)oc2ccccc12 [Compound 24, 6-(Benzyloxy)-8-methyl-2-(3-methyl-1-benzofuran-2-yl)quinoline-4-carboxylic acid]	++ (activity>50% of CFTR amplifier+VX-809 (3 uM) with compound at 10 uM and Compound A at 3 uM)
Cc1c(-c2cc(C(=O)O)c3cc(OCCO)cc(C)c3n2)oc2ccccc12 [Compound 25, 6-(2-Hydroxyethoxy)-8-methyl-2-(3-methyl-1-benzofuran-2-yl)quinoline-4-carboxylic Acid]	+ (activity<50% of an CFTR amplifier (Compound A)+VX-809 (3 uM) with compound at 10 uM and Compound A at 3 uM)
CCc1cc(C)c2nc(-c3oc4ccccc4c3C)cc(C(=O)O)c2c1 [Compound 26, 6-Ethyl-8-methyl-2-(3-methyl-1-benzofuran-2-yl)quinoline-4-carboxylic Acid]	++ (activity>50% of CFTR amplifier+VX-809 (3 uM) with compound at 10 uM and Compound A at 3 uM)
Cc1c(-c2cc(C(=O)O)c3cc(C(C)(C)C)cc(C)c3n2)oc2ccccc12 [Compound 27, 6-tert-Butyl-8-methyl-2-(3-methyl-1-benzofuran-2-yl)quinoline-4-carboxylic acid]	++ (activity>50% of CFTR amplifier+VX-809 (3 uM) with compound at 10 uM and Compound A at 3 uM)
Cc1c(-c2cc(C(=O)O)c3cc(C4CC4)cc(C)c3n2)oc2ccccc12 [Compound 28, 6-Cyclopropyl-8-methyl-2-(3-methyl-1-benzofuran-2-yl)quinoline-4-carboxylic Acid]	++ (activity>50% of CFTR amplifier+VX-809 (3 uM) with compound at 10 uM and Compound A at 3 uM)
Cc1cc(C)c2nc(-c3oc4ccccc4c3C)cc(CO)c2c1 [Compound 29, [6,8-Dimethyl-2-(3-methyl-1-benzofuran-2-yl)quinolin-4-yl]methanol]	+ (activity<50% of an CFTR amplifier (Compound A)+VX-809 (3 uM) with compound at 10 uM and Compound A at 3 uM)
Cc1c(-c2cc(C(=O)O)c3c(OCc4ccccc4)ccc(C)c3n2)oc2ccccc12 [Compound 30, 5-(benzyloxy)-8-methyl-2-(3-methyl-1-benzofuran-2-yl)quinoline-4-carboxylic acid]	++ (activity>50% of CFTR amplifier+VX-809 (3 uM) with compound at 10 uM and Compound A at 3 uM)
Cc1c(-c2cc(C(=O)O)c3c(C)ccc(C)c3n2)oc2ccccc12 [Compound 31, 5,8-Dimethyl-2-(3-methyl-1-benzofuran-2-yl)quinoline-4-carboxylic acid]	++ (activity>50% of CFTR amplifier+VX-809 (3 uM) with compound at 10 uM and Compound A at 3 uM)
CCc1c(-c2cc(C(=O)O)c3c(C)ccc(C)c3n2)oc2ccccc12 [Compound 32, 2-(3-Ethyl-1-benzofuran-2-yl)-5,8-dimethylquinoline-4-carboxylic acid]	++ (activity>50% of CFTR amplifier+VX-809 (3 uM) with compound at 10 uM and Compound A at 3 uM)
Cc1c(-c2cc(C(=O)O)c3c(OCc4ccccc4)ccc(C)c3n2)sc2ccccc12 [Compound 33, 5-(Benzyloxy)-8-methyl-2-(3-methyl-1-benzothiophen-2-yl)quinoline-4-carboxylic acid]	++ (activity>50% of CFTR amplifier+VX-809 (3 uM) with compound at 10 uM and Compound A at 3 uM)
Cc1ccc(OCc2ccccc2)c2c(C(=O)O)cc(-c3cc4ccccc4s3)nc12 [Compound 34, 2-(1-Benzothiophen-2-yl)-5-(benzyloxy)-8-methylquinoline-4-carboxylic acid]	++ (activity>50% of CFTR amplifier+VX-809 (3 uM) with compound at 10 uM and Compound A at 3 uM)
Cc1oc2ccccc2c1-c1cc(C(=O)O)c2c(OCc3ccccc3)ccc(C)c2n1 [Compound 35, 5-(Benzyloxy)-8-methyl-2-(2-methyl-1-benzofuran-3-yl)quinoline-4-carboxylic acid]	++ (activity>50% of CFTR amplifier+VX-809 (3 uM) with compound at 10 uM and Compound A at 3 uM)
Cc1c(-c2cc(C(=O)O)c3cc(C(C)C)cc(C)c3n2)oc2ccccc12 [Compound 36]	++ (activity>50% of CFTR amplifier+VX-809 (3 uM) with compound at 10 uM and Compound A at 3 uM)
Cc1c(-c2cc(C(=O)O)c3cc(-c4ccccc4)cc(C)c3n2)oc2ccccc12 [Compound 37]	++ (activity>50% of CFTR amplifier+VX-809 (3 uM) with compound at 10 uM and Compound A at 3 uM)
Cc1ccc(C)c2c(C(=O)O)cc(-c3oc4ccccc4c3Cl)nc12 [Compound 38, 2-(3-Chloro-1-benzofuran-2-yl)-5,8-dimethylquinoline-4-carboxylic acid]	+ (activity<50% of an CFTR amplifier (Compound A)+VX-809 (3 uM) with compound at 10 uM and Compound A at 3 uM)
Cc1ccc(C)c2c(C(=O)O)cc(-c3oc4ccccc4c3Br)nc12 [Compound 39, 2-(3-Bromo-1-benzofuran-2-yl)-5,8-dimethylquinoline-4-carboxylic acid]	+ (activity<50% of an CFTR amplifier (Compound A)+VX-809 (3 uM) with compound at 10 uM and Compound A at 3 uM)
Cc1c(-c2cc(C(=O)O)c3c(C)ccc(OCc4ccccc4)c3n2)oc2ccccc12 [Compound 40, 8-(Benzyloxy)-5-methyl-2-(3-methyl-1-benzofuran-2-yl)quinoline-4-carboxylic acid]	+ (activity<50% of an CFTR amplifier (Compound A)+VX-809 (3 uM) with compound at 10 uM and Compound A at 3 uM)
Cc1cc2c(C(=O)O)cc(-c3oc4ccccc4c3C)nc2cc1OCc1ccccc1 [Compound 41, 7-(Benzyloxy)-6-methyl-2-(3-methyl-1-benzofuran-2-yl)quinoline-4-carboxylic acid]	+ (activity<50% of an CFTR amplifier (Compound A)+VX-809 (3 uM) with compound at 10 uM and Compound A at 3 uM)
Cc1c(-c2cc(C(=O)O)c3c(OCCc4ccccc4)ccc(C)c3n2)oc2ccccc12 [Compound 73, 8-methyl-2-(3-methyl-1-benzofuran-2-yl)-5-(2-phenylethoxy)quinoline-4-carboxylic acid]	++ (activity>50% of CFTR amplifier+VX-809 (3 uM) with compound at 10 uM and Compound A at 3 uM)
Cc1c(-c2cc(C(=O)O)c3c(OC4CC(c5ccccc5)C4)ccc(C)c3n2)oc2ccccc12 (stereo not drawn) [Compound 75, 8-Methyl-2-(3-methyl-1-benzofuran-2-yl)-5-(3-phenylcyclobutoxy)quinoline-4-carboxylic acid]	++ (activity>50% of CFTR amplifier+VX-809 (3 uM) with compound at 10 uM and Compound A at 3 uM)
Cc1c(-c2cc(C(=O)O)c3c(O[C@H]4CC[C@H](c5ccccc5)CC4)ccc(C)c3n2)oc2ccccc12 [Compound 76, 8-Methyl-2-(3-methyl-1-benzofuran-2-yl)-5-[[(1r,4r)-4-phenylcyclohexyl]oxy]quinoline-4-carboxylic acid]	++ (activity>50% of CFTR amplifier+VX-809 (3 uM) with compound at 10 uM and Compound A at 3 uM)
Cc1c(-c2cc(C(=O)O)c3c(OC4CCCC(c5ccccc5)C4)ccc(C)c3n2)oc2ccccc12 (stereo not drawn) [Compound 77, 8-Methyl-2-(3-methyl-1-benzofuran-2-yl)-5-[(3-phenylcyclohexyl)oxy]quinoline-4-carboxylic acid]	++ (activity>50% of CFTR amplifier+VX-809 (3 uM) with compound at 10 uM and Compound A at 3 uM)
Cc1c(-c2cc(C(=O)O)c3c(OC4CCCCC4)ccc(C)c3n2)oc2ccccc12 [Compound 79, 5-(Cyclohexyloxy)-8-methyl-2-(3-methyl-1-benzofuran-2-yl)quinoline-4-carboxylic acid]	++ (activity>50% of CFTR amplifier+VX-809 (3 uM) with compound at 10 uM and Compound A at 3 uM)
Cc1c(-c2cc(C(=O)O)c3c(OC(=O)Nc4ccccc4)ccc(C)c3n2)oc2ccccc12 [Compound 81, 8-Methyl-2-(3-methyl-1-benzofuran-2-yl)-5-[(phenylcarbamoyl)oxy]quinoline-4-carboxylic Acid]	+ (activity<50% of an CFTR amplifier (Compound A)+VX-809 (3 uM) with compound at 10 uM and Compound A at 3 uM)
Cc1ccc(OCc2ccccc2)c2c(C(=O)O)cc(-c3snc4ccccc34)nc12 [Compound 86, 2-(2,1-Benzothiazol-3-yl)-5-(benzyloxy)-8-methylquinoline-4-carboxylic Acid]	++ (activity>50% of CFTR amplifier+VX-809 (3 uM) with compound at 10 uM and Compound A at 3 uM)
Cc1ccc(OCc2ccccc2)c2c(C(=O)O)cc(-c3csc4ccccc34)nc12 [Compound 95, 2-(1-Benzothiophen-3-yl)-5-(benzyloxy)-8-methylquinoline-4-carboxylic acid]	++ (activity>50% of CFTR amplifier+VX-809 (3 uM) with compound at 10 uM and Compound A at 3 uM)
Cc1c(-c2cc(C(=O)O)c3c(OC4CCC(c5nnco5)CC4)ccc(C)c3n2)oc2ccccc12 (stereo not drawn) [Compound 97, 8-Methyl-2-(3-methyl-1-benzofuran-2-yl)-5-[[4-(1,3,4-oxadiazol-2-yl)cyclohexyl]oxy]quinoline-4-carboxylic acid]	++ (activity>50% of CFTR amplifier+VX-809 (3 uM) with compound at 10 uM and Compound A at 3 uM)
